Read-outs that look alike come from different tables or passages of the source.
Assays:
[1] = system: nonresistant strain of bed bug; conditions: for Residual Effect (% Knockdown & Mortality/hrs) 24: 24 hrs; for Residual Effect (% Knockdown & Mortality/hrs) 48: 48 hrs; for Residual Effect (% Knockdown & Mortality/hrs) 72: 72 hrs
Method: The compositions and individual components thereof were prepared to provide the appropriate rates of application for combinations of acetamiprid, chlorfenapyr, and rosemary oil, as well as acetamiprid, chlorfenapyr, and rosemary oil paired and alone. The insecticide formula(s) were aliquoted (100 μL) into a glass petri dish (100 mm). Filter paper was placed on top of the solution. Ten adult bed bugs were then placed on top of the filter paper and morbidity and moribundity (knockdown) and mortality was recorded at 5 minutes for each treatment combination and the control. After 2 hours, bed bugs were removed from the treated surface and placed in a holding chamber. Bed bug morbidity, moribund, and mortality was recorded every 24 hours for 7 days.
Dash indicates no knockdown or mortality during exposure.

[2] = system: adult bed bugs resistant strain (UMC) colony; assay: Contact lethal time of pyrethroids and rosemary oil on treated filter paper, Example 4; format: in vivo, bed bug; conditions: rate 0.01 % by weight
Method: The control is 100 μL […]. Filter paper was then placed on top of the solution.

| Structure (SMILES) | 2 hour exposure (min) LT50 ([1]; rate 0.01 % by weight) [min] | 2 hour exposure (min) LT99 ([1]; rate 0.01 % by weight) [min] | Residual Effect (% Knockdown & Mortality/hrs) 24 ([1]; rate 0.01 % by weight) [%] | Residual Effect (% Knockdown & Mortality/hrs) 48 ([1]; rate 0.01 % by weight) [%] | Residual Effect (% Knockdown & Mortality/hrs) 72 ([1]; rate 0.01 % by weight) [%] | 2 hour exposure (min) LT50 ([1]; rate 0.1 % by weight) [min] | 2 hour exposure (min) LT99 ([1]; rate 0.1 % by weight) [min] | Residual Effect (% Knockdown & Mortality/hrs) 24 ([1]; rate 0.1 % by weight) [%] | Residual Effect (% Knockdown & Mortality/hrs) 48 ([1]; rate 0.1 % by weight) [%] | Residual Effect (% Knockdown & Mortality/hrs) 72 ([1]; rate 0.1 % by weight) [%] | 2 hour exposure (min) LT50 ([1]; rate 1.0 % by weight) [min] | 2 hour exposure (min) LT99 ([1]; rate 1.0 % by weight) [min] | Residual Effect (% Knockdown & Mortality/hrs) 24 ([1]; rate 1.0 % by weight) [%] | Residual Effect (% Knockdown & Mortality/hrs) 48 ([1]; rate 1.0 % by weight) [%] | Residual Effect (% Knockdown & Mortality/hrs) 72 ([1]; rate 1.0 % by weight) [%] | LT50 [2] [min] | LT95 [2] [min] |
| --- | --- | --- | --- | --- | --- | --- | --- | --- | --- | --- | --- | --- | --- | --- | --- | --- | --- |
| CC(=NC#N)N(C)Cc1ccc(Cl)nc1 [Acetamiprid, N-[(6-chloro-3-pyridyl)methyl]-N′-cyano-N-methyl-acetamidine] | 39.3 | 38038.1 | 10.0 | 20.0 | 20.0 | 22.4 | 12565.9 | 20.0 | 10.0 | 10.0 | 7.0 | 510.8 | 40.0 | 30.0 | 50.0 | – | – |
| CCOCn1c(-c2ccc(Cl)cc2)c(C#N)c(Br)c1C(F)(F)F [Chlorfenapyr, 4-Bromo-2-(4-chlorophenyl)-1-ethoxymethyl-5-trifluoromethyl-1H-pyrrole-3-carbonitrile] | – | – | 0.0 | 0.0 | 0.0 | – | – | 30.0 | 50.0 | 70.0 | – | – | 40.0 | 80.0 | 100.0 | – | – |
| CC1(C)C(C=C(Cl)Cl)C1C(=O)OCc1cccc(Oc2ccccc2)c1 (stereo not shown) [Permethrin, permethrin] | – | – | – | – | – | – | – | – | – | – | – | – | – | – | – | 20.78 | 490.348 |
| CC(C)=CC1C(C(=O)OCN2C(=O)C3=C(CCCC3)C2=O)C1(C)C (stereo not shown) [Tetramethrin, tetramethrin] | – | – | – | – | – | – | – | – | – | – | – | – | – | – | – | 14000 | 6.5e+06 |
